Experimental data: patent publication US11384075B2, “Quinolinone compounds” (Janssen Pharmaceutica NV, priority 2017, dated 2022)

Experiments:
Format in all cases: cell-based
[1] = tested on: NIH/3T3 cells transfected with the same control vector; assay: NIH/3T3 mock cell proliferation assay (counter assay, general toxicity); settings: Mus musculus, NIH3T3, 72 h, 72-hr incubation, CellTiter Glo, starting with 30 μM; counter assay for general toxicity; read-out: NIH/3T3 MOCK CTG (IC50)
Procedure, shortened: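 Control-vector NIH/3T3 cells, 30,000/well in DMEM with 10% FBS, exposed 72 h at 37 °C to compound (9 points, 3-fold from 30 μM, 0.3% DMSO). CellTiter-Glo luminescence normalized to survival %; IC50, pIC50 and Hill slope from concentration-response fit.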

[2] = tested on: NIH/3T3 cells overexpressing FGFR3 V555M-TACC3 fusion protein; assay: NIH/3T3 FGFR3 V555M-TACC3 cellular phospho-ERK assay (in vitro PD assay); settings: Mus musculus, NIH3T3; 1-hr incubation, AlphaLISA SureFire Ultra p-ERK1/2 (Thr202/Tyr204); read-out: NIH/3T3 FGFR3 V555M-TACC3 pERK (IC50)
Protocol: NIH/3T3 FGFR3 V555M-TACC3 Cellular Phospho-ERK Assay (In Vitro PD Assay)
50 μL of cell suspension (NIH/3T3 cells overexpressing FGFR3 V555M-TACC3 fusion protein) (total 10,000 cells per well in growth medium (DMEM containing 1% Glutamax, 10% FBS and 1% Pen/Strep)) was seeded in a 384-well plate. After overnight incubation at 37° C. and 5% CO2, 5.5 μL of growth medium containing 10× testing compound was added into cell cultures (10 dose points with 4× serial dilution, starting with 10 μM, 0.1% DMSO final). After 1-hr incubation at 37° C. and 5% CO2, the medium was depleted and AlphaLISA SureFire Ultra p-ERK1/2 (Thr202/Tyr204) Assay Kit (from PerkinElmer) was applied for phospho-ERK level detection according to the kit instructions. The RFUs (relative fluorescence units were measured on EnVision microplate reader (ex. 680 nm, em. 615 nm) and concentration-response curve was plotted using Prism to calculate IC50 (M), pIC50 (−log IC50) and HillSlope value.

[3] = target: T1, NIH/3T3 cells overexpressing FGFR3 V555M-TACC3 fusion protein (Homo sapiens, UniProt P22607, V555M, cells depend on it); assay: NIH/3T3 FGFR3 V555M-TACC3 cell proliferation assay; settings: 72-hr incubation, CellTiter Glo, starting with 10 μM; read-out: NIH/3T3 FGFR3 V555M-TACC3 CTG (IC50)
T1 construct: NIH/3T3 FGFR3 V555M-TACC3 CTG (IC50); other: 72-hr incubation, CellTiter Glo, starting with 10 μM; fused on or other part: Q9Y6A5 (Transforming acidic coiled-coil-containing protein 3)
Procedure, shortened: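 NIH/3T3 cells overexpressing FGFR3 V555M-TACC3 fusion, 30,000/well in DMEM/10% FBS, treated for 72 h at 37 °C with 9 doses (4× dilutions from 10 μM top, 0.1% DMSO). CellTiter-Glo luminescence normalised to % survival; IC50, pIC50 and Hill slope from concentration-response fits.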

[4] = target: T2, NIH/3T3 cells overexpressing FGFR3 WT-TACC3 fusion protein (Homo sapiens, UniProt P22607); assay: NIH/3T3 FGFR3 WT-TACC3 cell proliferation assay; settings: 72-hr incubation, CellTiter Glo, starting with 10 μM; read-out: NIH/3T3 FGFR3 WT-TACC3 CTG (IC50)
T2 construct: NIH/3T3 FGFR3 WT-TACC3 CTG (IC50); other: 72-hr incubation, CellTiter Glo, starting with 10 μM; fused on or other part: Q9Y6A5 (Transforming acidic coiled-coil-containing protein 3)
Procedure, shortened: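 Cells seeded overnight, then exposed 72 h at 37 °C to compound in 9-point 4-fold dilutions from 10 μM (0.1% DMSO final). Viability read by CellTiter-Glo luminescence, normalized to survival %; IC50, pIC50 and Hill slope from concentration-response fit.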

T1 sequence (P22607 whole entry V555M, the tested form may be a part): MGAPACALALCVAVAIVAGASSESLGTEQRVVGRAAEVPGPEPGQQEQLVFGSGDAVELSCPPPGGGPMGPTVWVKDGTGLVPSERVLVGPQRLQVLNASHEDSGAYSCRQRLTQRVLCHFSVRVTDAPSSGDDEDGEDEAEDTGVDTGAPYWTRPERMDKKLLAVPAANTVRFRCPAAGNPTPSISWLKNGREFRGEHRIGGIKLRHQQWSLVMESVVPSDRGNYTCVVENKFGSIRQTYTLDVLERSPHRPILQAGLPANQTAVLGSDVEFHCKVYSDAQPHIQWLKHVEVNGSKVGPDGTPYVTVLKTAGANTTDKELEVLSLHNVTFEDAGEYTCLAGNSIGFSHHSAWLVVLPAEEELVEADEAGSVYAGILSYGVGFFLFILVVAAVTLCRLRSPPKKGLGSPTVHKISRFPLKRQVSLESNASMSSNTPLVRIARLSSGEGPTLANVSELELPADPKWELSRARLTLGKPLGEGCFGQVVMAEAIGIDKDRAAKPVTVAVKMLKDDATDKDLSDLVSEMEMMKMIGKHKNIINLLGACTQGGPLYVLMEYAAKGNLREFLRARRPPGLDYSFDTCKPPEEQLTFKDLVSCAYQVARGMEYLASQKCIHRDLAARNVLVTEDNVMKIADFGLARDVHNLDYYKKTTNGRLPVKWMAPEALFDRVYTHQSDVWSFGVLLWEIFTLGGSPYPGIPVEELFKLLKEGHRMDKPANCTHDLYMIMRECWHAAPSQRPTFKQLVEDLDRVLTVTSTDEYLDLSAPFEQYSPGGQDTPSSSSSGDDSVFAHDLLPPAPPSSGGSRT
T2 sequence (P22607 whole entry, change not shown, the tested form may be a part): as the sequence (P22607 whole entry V555M, the tested form may be a part) above, with M555V counted along it

Row | GI50 [3] [nM] | GI50 [4] [nM] | Structure (SMILES) | IC50 [1] [nM] | IC50 [2] [nM]
1 | 42.7 | 24.8 | C[C@@H]1CN(c2ccc3nc(-c4c(N[C@@H](C)c5ccccn5)c5ccccc5[nH]c4=O)[nH]c3c2)C[C@H](C)O1 [Compound 4, 3-(6-((2S,6R)-2,6-dimethylmorpholino)-1H-benzo[d]imidazol-2-yl)-4-(((S)-1-(pyridin-2-yl)ethyl)amino)quinolin-2(1H)-one] | 7690 | 1.09
2 | 39.4 | 20.2 | C[C@H](Nc1c(-c2nc3ccc(N4CCOCC4)c(F)c3[nH]2)c(=O)[nH]c2ccccc12)c1ccccn1 [Compound 24, (S)-3-(7-fluoro-6-morpholino-1H-benzo[d]imidazol-2-yl)-4-((1-(pyridin-2-yl)ethyl)-amino)quinolin-2(1H)-one] | 13100 | 0.959
3 | 48.8 | 25 | C[C@@H]1CN(c2ccc3nc(-c4c(N[C@@H](C)c5ccccn5)c5ccccc5[nH]c4=O)[nH]c3c2)C[C@@H](C)O1 [Compound 21, 3-(6-((2R,6R)-2,6-dimethylmorpholino)-1H-benzo[d]imidazol-2-yl)-4-(((S)-1-(pyridin-2-yl)ethyl)amino)quinolin-2(1H)-one] | 13600 | 2.35
4 | 4.89 | 3.61 | C[C@H](Nc1c(-c2nc3ccc(N4CCOCC4)cc3[nH]2)c(=O)[nH]c2ccccc12)c1ncccn1 [Compound 2, (S)-3-(6-morpholino-1H-benzo[d]imidazol-2-yl)-4-((1-(pyrimidin-2-yl)ethyl)amino)-quinolin-2(1H)-one] | 15300 | 0.946
